Source: patent US20210267918A1, “PHARMACEUTICAL COMBINATION FOR USE IN AGE-RELATED AND/OR DEGENERATIVE DISEASES” (priority 2018, published 2021)
Where a name gives a salt, the structure may show the parent alone. Marks after values point to notes of the source that are not given here.

What was measured:
[1] = test system: wild-type C. elegans N2 strain; experiment: Life span assay, repeated dosing (manual scoring on NGM agar plates); assay type: in vivo, Caenorhabditis elegans; details: for Decrease MLS versus combo Met25 + Gal100 / Increase MLS versus untreated control / Max LS / Median LS: repeated dosing; for MLS ± SEM (mean life span): repeated dosing from first day of adulthood; for Max LS: day on which 10% of the animals are still alive; for Median LS: day on which 50% of the animals are still alive
Protocol: (§1) The wild-type C. elegans N2 strain was obtained from the Caenorhabditis Genetic Center (University of Minnesota, USA) and was cultivated at 20° C. on standard nematode growth medium (NGM) seeded with a thin layer of Escherichia coli OP50, unless stated otherwise. Life span of C. elegans was measured analogous to methods described earlier^1,2. The first day of adulthood was always recorded as day 0. FUdR (5-fluoro-2′-deoxyuridine, Sigma-Aldrich) was used in all life span assays to avoid progeny production. Multiple independent assays were carried out. A minimum of 100 animals per condition per assay was used, as to ensure sufficient statistical power.
During the ‘repeated dosing assay’, we followed the standard method in the field (i.e. manual inspection of survival of age-synchronized populations on bacteria-coated agar plates^2), which is robust and technically relatively simple. In short, at the onset of adulthood, animals were transferred to standard NGM assay plates (untreated control) or NGM assay plates supplemented with the corresponding compounds at different doses (Table 1). Animals were transferred to fresh standard NGM assay plates or fresh NGM assay plates supplemented with the corresponding compounds at different doses thrice in the first week and weekly thereafter (for a total duration of 33 days). This dosing schedule is in accordance with standardized protocols from the Caenorhabditis Intervention Testing Program (CITP)^4. Met was added to the NGM prior to autoclaving, whereas Gal was pipetted onto the seeded assay plates (at least two hours prior to transferring animals on to the assay plates). A same volume of liquid was added to all plates, also to plates of the untreated control and Met condition (i.e. mock treatment). Animals that crawled off the assay plates or died of internal hatching were censored. The number of live and dead worms was scored every one to two days.

[2] = test system: wild-type C. elegans N2 strain; experiment: Life span assay, single dosing (WorMotel platform); assay type: in vivo, Caenorhabditis elegans; details: for Decrease MLS versus combo Met25 + Gal100 / Increase MLS versus untreated control / Max LS / Median LS / survival compared to the untreated control: single dosing; for MLS ± SEM (mean life span): single dosing at first day of adulthood, pooled assays; for Max LS: day on which 10% of the animals are still alive; for Median LS: day on which 50% of the animals are still alive; for survival compared to the untreated control: log-rank test
Protocol: as §1
(§2) During the ‘single dosing assay’, we used the WorMotel platform for long-term recurrent imaging of C. elegans^3. This semi-automated platform allows for unbiased longitudinal monitoring of C. elegans aging phenotypes, including daily measurements of survival as well as locomotion quantification. From the onset of adulthood, animals were confined to individual wells in screening plates (i.e. microfabricated WorMotel chips prepared as described in^3) that were seeded with E. coli HT115(DE3) as a food source and supplemented with the corresponding compounds at different doses (Table 1). Four replicate screening plates were assayed, with all four tested conditions present on each screening plate (in randomized locations). Animals were kept on the same screening plates for the duration of the experiment (i.e. 30 days). The time of death is determined as the final time of nonzero movement. Note that this imaging platform is incompatible with repeated dosing. We used the statistical software R to construct Kaplan-Meier survival curves, calculate mean and median life span and carry out all related statistical analyses. To compare survival between two conditions, log-rank tests were used (i.e. survdiff function of the survival package, adjusted for multiple comparisons via the Benjamini-Hochberg method). The corresponding p-values are referred to as plog-rank.

C. elegans [3] = experiment: WorMotel-based locomotion tracking (single dosing); assay type: in vivo, Caenorhabditis elegans; details: for increase in maximal baseline activity compared to the untreated control: baseline = prior to blue light stimulus; for increase in total number of healthy days (locomotion-based health span) versus untreated control: days with activity >15% of mean maximal activity of untreated control
Protocol: as §2
(§3) Locomotion of C. elegans is characterized by sinusoidal movements (i.e. body bends), and progressively diminishes during adult life. As in other animals, maintenance of coordinated movement is considered a prime health span parameter^5.
Each imaging period, the mean and maximum locomotion activity before and after a blue light stimulus are quantified (as described in^3). The resulting activity values are termed ‘baseline locomotion’ and ‘stimulated locomotion’, respectively. […] An increase in ‘healthy days’ is indicative for an increase in locomotion-based healthspan. Results were analyzed using one-way and two-way ANOVAs, with the Holm-Sidak correction for multiple comparisons in GraphPad Prism software. All corresponding p-values are referred to as pANOVA.

[4] = test system: C. elegans sarcomere myofilaments; experiment: Quantifying muscle morphology and deterioration (myo-3p::MYO-3::GFP, strain RW1596); assay type: in vivo, Caenorhabditis elegans; details: late adulthood (day 14)
Source text: Sarcomeres are fundamental muscle units, responsible for muscle contraction. C. elegans' sarcomeres consist of alternated filaments containing myosin and actin, similar to sarcomeres of vertebrates. While sarcomere myofilaments in the body wall of young animals are organized in parallel symmetric rows, sarcomere myofilaments in older animals become progressively disorganized with a more irregular shape and orientation.
By using a transgenic reporter strain that has a fusion of myosin heavy chain with fluorescent GFP (strain RW1596; myo-3p::MYO-3::GFP), muscle structure of C. elegans can be visualized in vivo. Combined with confocal microscopy and bioinformatic analysis this offers not only qualitative, but also quantitative readouts for the assessment of the organizational level of muscle fibers. An analytical method to quantify muscle deterioration has been optimized at the laboratory of Prof. Bart Braeckman (UGent; unpublished data). We used this technique to verify whether animals treated with Gal and/or Met, display a muscle phenotype resembling that of younger untreated individuals. […]
For each animal, the two morphological metrics ‘aspect ratio’ and ‘smoothness’ were extracted. […] The aspect ratio is calculated as the ratio of the length of the major axis (=length) and the length of the minor axis (=width) for individual myofilaments within a sarcomere. […]

C. elegans [5] = experiment: Camera-based locomotion tracking (repeated dosing); assay type: in vivo, Caenorhabditis elegans; details: Table 2, day 7 post-reproductive adults; for Cell occupancy ± SEM: squares of 1 mm^2
Source text: as §3
To quantify locomotion effects in more detail, we utilized an automated tracking system for C. elegans that is compatible with standard petri plates. The multi-camera tracking system allows for objective quantification of mean locomotion speed, maximal locomotion speed and multiple behavioral parameters via path-based image analysis. The system was utilized similar to Peymen et al^8. Two distinct assays were performed. In a first assay (Table 2), the locomotion effects of Gal, Met and a combination of both compounds was assayed. This allowed to test for synergetic effects between Gal and Met on multiple locomotion parameters. In a second assay (Table 3), we characterized the locomotion effects of the combination of Met with different acetylcholinesterase inhibitors (i.e. Gal, Don and Riv), as well as the combination of Met with the acetylcholinesterase inhibitor-like compound Mem. As such, we were able to test whether there is a class effect of acetylcholinesterase inhibitors as a whole (in combination with Met). Synchronized wild-type animals were grown in the presence of the corresponding compounds at different doses from the L4 stage (i.e. day 0) and FUdR, until the start of the measurement. Animals were re-dosed thrice (at day 2, 4 and 7) via transfer to fresh compound-treated NGM plates. Prior to imaging, for each replicate 20 well-fed living animals were manually transferred from their culture plate to an unseeded NGM plate, and after 5 min transferred to another unseeded NGM plate used for imaging. Image acquisition took place with StreamPix 6 multicamera software (GigE PRO GP11004M camera with KOWA LM16JC10M lens) for 11 min at 2 fps and a constant exposure, after which worms were tracked using custom particle-tracking MATLAB code. For each mobile animal (i.e. an animal that moved for at least 2 min during the imaging period), both mean and maximal locomotion speeds were extracted, as well as the behavioral metrics ‘cell occupancy’ and ‘fraction running’. The latter represents the fraction of time that an animal was detected to be running (as opposed to pausing or turning). Cell occupancy is a metric quantifying the spatial search efficiency of a worm. Cell occupancy values represent the number of unique cells (squares of 1 mm^2) that the worm visited during the imaging period. Both behavioral parameters decline during aging. Experiments were performed in triplicate (or quadruplicate), with 20 worms per condition per replicate. The results were analyzed using multiple t testing, with the Holm-Sidak correction for multiple comparisons, in GraphPad Prism software. The corresponding p-values are referred to as p.

[6] = test system: glutathione S-transferase 4 (gst-4) gene transcription; experiment: In vivo gene activity assay (gst-4p::GFP reporter); parameters: species or system Caenorhabditis elegans; details: GFP fluorescence; treated from L1 until late L4 stage
Source text: The transparent body of C. elegans allows for straightforward and non-invasive measurements of in vivo gene transcription via transgenic fluorescent reporters^9. We measured transcription of the gst-4p::GFP C. elegans GFP reporter to gain insight into the intracellular signaling networks that are affected by Met and/or Gal. Additionally, we tested whether Met and Gal have a synergistic or potentiating effect on activation of gst-4 gene transcription.
The gst-4 gene encodes for the cytoprotective and drug-metabolizing enzyme glutathione S-transferase 4 (GST-4). Gst-4 is a direct target of SKN-1, an ortholog of the mammalian Nuclear Factor E2-Related Factor (Nrf2) protein family that is a key transcription factor involved in the protection against oxidative and xenobiotic stresses. […] In C. elegans aging research, transcriptional activation of gst-4 is often used as a read-out for SKN-1 activity. […] GFP fluorescence was quantified using an automated method, as described earlier^11. In short: JMET69 animals with genotype ls[gst-4(1491 bp)::gfp;unc-119(+)];ls[unc-54^p::mCherry;unc-119(+)] were grown in the presence and absence of drugs (i.e. Met and/or Gal) on NGM plates seeded with E. coli OP50, from the L1 until the late L4 stage, before transfer to a 96 well plate for fluorescence quantification. […]

Structure (SMILES) | Decrease MLS versus combo Met25 + Gal100 [1] | Increase MLS versus untreated control [1] | MLS ± SEM (mean life span) [1] [days] | Max LS [1] [days] | Median LS [1] [days] | Decrease MLS versus combo Met25 + Gal100 [2] [% *] | Increase MLS versus untreated control [2] | MLS ± SEM (mean life span) [2] [days] | Max LS [2] [days] | Median LS [2] [days] | survival compared to the untreated control [2] | increase in maximal baseline activity compared to the untreated control (C. elegans [3]) [%] | increase in total number of healthy days (locomotion-based health span) versus untreated control (C. elegans [3]) | sarcomere aspect ratio versus untreated control (in words) [4] | Fraction running ± SEM (C. elegans [5]) | Maximal speed ± SEM (C. elegans [5]) | Mean speed ± SEM (C. elegans [5]) | Cell occupancy ± SEM (C. elegans [5]) | gst-4 transcription level change compared to the untreated control [6]
CN(C)C(=N)NC(=N)N.Cl [Met 25, 1,1-Dimethylbiguanide hydrochloride] | −8.3% | +11.9% **** | 17.68 ± 0.50 | 23 | 18 | −6.7 | +9.6% ** | 19.08 ± 0.58 | 28 | 20 | significantly increased survival | 35 | +14% | no significant increases in aspect ratio | 67 ± 2 % | 262 ± 8 ^NS μm/s | 102 ± 5 μm/s | 28 ± 3 unique areas visited | +26%
COc1ccc2c3c1O[C@H]1C[C@@H](O)C=C[C@@]31CCN(C)C2 [Gal 100, Galantamine hydrobromide] | −12.5% **** | +6.8% * | 16.87 ± 0.32 | 22 | 17 | −3.9 | +12.8% *** | 19.63 ± 0.44 | 27 | 20 | significantly increased survival | 15 | +20% | no significant increases in aspect ratio | 48 ± 2 ^NS % | 270 ± 17 ^NS μm/s | 48 ± 4 ^NS μm/s | 11 ± 1 ^NS unique areas visited | +9%
